This note sets out measurements from patent US20240368104A1, “Novel Dialkoxynaphtho[2,3-C]Furan-1(3H)-One Derivatives and Pharmaceutical Composition For Preventing or Treating Respiratory Disease or SARS-COV-2 Infection Disease, Comprising Same” (priority 2021, published 2024).

Counter-ions that a name gives are not always drawn. Like-named read-outs stand apart in the source and are kept apart here.

For one data set, the system named is SARS-COV-2. As to the kind of experiment: microbe, parasite or virus in culture. Type of data set: cell-based. On the set-up: SI (Selectivity Index, CC50/IC50): unit not given here. Particulars: for SI (Selectivity Index, CC50/IC50): SARS-COV-2, values >50 assumed to be 50; for IC50: read-out: SARS-COV-2 inhibition (IC50).
The next data set is described as follows: in vitro. Conditions: African green monkey.
Setting [1] is: Severe acute respiratory syndrome coronavirus 2, Vero, 24 h.
[2] abbreviates: Severe acute respiratory syndrome coronavirus 2, Vero cells, 24 hours infection.

Broadly, the IC50 is the concentration that inhibits the measured activity by half. Regarding `COc1cc2cc3c(c(-c4cnc(N(C)CCC5=CCCCC5)nc4)c2cc1OC)C(=O)OC3.Cl` [Example 101, 9-(2-((2-(cyclohex-1-en-1-yl)ethyl)(methyl)amino)pyrimidin-5-yl)-6,7-dimethoxynaphtho[2,3-c]furan-1(3H)-one hydrochloride], the “SI (Selectivity Index, CC50/IC50)” value with SARS-COV-2 is 13.00. In the data set with SARS-COV-2 (setting [1]), the IC50 is 3.85 µM. The CC50 in “in vitro” is more than 50 µM.
Consider `COc1cc2cc3c(c(-c4cnc(NCC5CC5)nc4)c2cc1OC)C(=O)OC3` [Example 67, 9-(2-((cyclopropylmethyl)amino)pyrimidin-5-yl)-6,7-dimethoxynaphtho[2,3-c]furan-1(3H)-one], for which, in the data set with SARS-COV-2, the “SI (Selectivity Index, CC50/IC50)” value stood at 2.72. Besides, in the data set on SARS-COV-2 (setting [2]), the IC50 worked out at 18.4 µM. The molecule also yielded a CC50 in “in vitro” of more than 50 µM.
In the case of `COCCN(CCOC)c1ncc(-c2c3c(cc4cc(OC)c(OC)cc24)COC3=O)cn1` [Example 72, 9-(2-(bis(2-methoxyethyl)amino)pyrimidin-5-yl)-6,7-dimethoxynaphtho[2,3-c]furan-1(3H)-one], in the data set on SARS-COV-2, the “SI (Selectivity Index, CC50/IC50)” value turned out to be 1.64. Moreover, the IC50 in the data set on SARS-COV-2 (setting [2]) came out at 30.4 µM. The same molecule came in with a CC50 in “in vitro” of more than 50 µM.
For `COc1cc2cc3c(c(-c4ccc(N5C(=O)OC[C@@H]5Cc5ccccc5)nc4)c2cc1OC)C(=O)OC3` [Example 211, (S)-4-benzyl-3-(5-(6,7-dimethoxy-3-oxo-1,3-dihydronaphtho[2,3-c]furan-4-yl)pyridin-2-yl) oxazolidin-2-one], in that order: 12.50, 4 µM and more than 50 µM.
In the case of `COc1cc2cc3c(c(-c4ccc5occc5c4)c2cc1OC)C(=O)OC3` [Example 52, 9-(benzofuran-5-yl)-6,7-dimethoxynaphtho[2,3-c]furan-1(3H)-one], the “SI (Selectivity Index, CC50/IC50)” value in the data set on SARS-COV-2 is reported as 35.13. Further, the IC50 in the data set on SARS-COV-2 (setting [2]) is 1.42 µM. In the data set “in vitro”, this molecule gave a CC50 of more than 50 µM.
Regarding `COc1cc2cc3c(c(-c4cc5c(cc4OP(=O)(NC(C)C)Oc4ccccc4)OCO5)c2cc1OC)C(=O)OC3` (stereo not drawn) [Example 278, 6-(6,7-dimethoxy-3-oxo-1,3-dihydronaphtho[2,3-c]furan-4-yl)benzo[d][1,3]dioxol-5-yl phenyl isopropylphosphoramidate], in the data set with SARS-COV-2, the “SI (Selectivity Index, CC50/IC50)” value amounted to 1.00. In the data set with SARS-COV-2 (setting [1]), the 50% inhibitory concentration (IC50) is more than 50 µM. The same molecule came in with a CC50 in the data set “in vitro” of more than 50 µM.
Take `CCC(C)CNc1ncc(-c2c3c(cc4cc(OC)c(OC)cc24)COC3=O)cn1` (stereo not drawn) [Example 64, 6,7-dimethoxy-9-(2-((2-methylbutyl)amino)pyrimidin-5-yl)naphtho[2,3-c]furan-1(3H)-one]: in the data set on SARS-COV-2, the “SI (Selectivity Index, CC50/IC50)” value was determined as 1.00. The IC50 with SARS-COV-2 (setting [2]) is more than 50 µM. The molecule also displayed a CC50 in the data set “in vitro” of more than 50 µM.
Turning to `COc1cc2cc3c(c(-c4cnc(OC)c(-c5nc6ccccc6[nH]5)c4)c2cc1OC)C(=O)OC3` [Example 204, 9-(5-(1H-benzo[d]imidazol-2-yl)-6-methoxypyridin-3-yl)-6,7-dimethoxynaphtho[2,3-c]furan-1(3H)-one], the “SI (Selectivity Index, CC50/IC50)” value in the data set with SARS-COV-2 amounted to 0.93. The IC50 in the data set with SARS-COV-2 (setting [1]) was 25.9 µM. In “in vitro”, the CC50 was determined as 24.2 µM.
`COc1cc2cc3c(c(-c4ccc(N(C)C5CC5)nc4)c2cc1OC)C(=O)OC3` [Example 171, 9-(6-(cyclopropyl(methyl)amino)pyridin-3-yl)-6,7-dimethoxynaphtho[2,3-c]furan-1(3H)-one]: in the data set with SARS-COV-2, the “SI (Selectivity Index, CC50/IC50)” value is listed as 885.42. Further, the 50% inhibitory concentration (IC50) in the data set with SARS-COV-2 (setting [2]) is 0.06 µM. In “in vitro”, this molecule yielded a CC50 of more than 50 µM.
In the case of `CCN(c1ncc(-c2c3c(cc4cc(OC)c(OC)cc24)COC3=O)cn1)C1CCCC1.Cl` [Example 92, 9-(2-(cyclopentyl(ethyl)amino)pyrimidin-5-yl)-6,7-dimethoxynaphtho[2,3-c]furan-1(3H)-one hydrochloride], the “SI (Selectivity Index, CC50/IC50)” value with SARS-COV-2 was 42.34. In the data set on SARS-COV-2 (setting [1]), the IC50 came to 1.18 µM. Also, in “in vitro”, the CC50 was more than 50 µM.
For `CCC(C)CN(C)c1ccc(-c2c3c(cc4cc(OC)c(OC)cc24)COC3=O)cn1.Cl` (stereo not drawn) [Example 176, 6,7-dimethoxy-9-(6-(methyl(2-methylbutyl)amino)pyridin-3-yl)naphtho[2,3-c]furan-1(3H)-one], in that order: 22.63, 2.21 µM and more than 50 µM.
Consider `COc1cc2cc3c(c(-c4cnc(N5CCC[C@@H]5CN5CCCC5)nc4)c2cc1OC)C(=O)OC3` [Example 110, (R)-6,7-dimethoxy-9-(2-(2-(pyrrolidin-1-ylmethyl)pyrrolidin-1-yl)pyrimidin-5-yl)naphtho[2,3-c]furan-1(3H)-one], for which the “SI (Selectivity Index, CC50/IC50)” value in the data set with SARS-COV-2 was found to be 5.78. In the data set with SARS-COV-2 (setting [2]), the IC50 came to 8.66 µM. In the data set “in vitro”, this molecule returned a CC50 of more than 50 µM.
For `COc1cc2cc3c(c(-c4cncc(OC(C)C)c4)c2cc1OC)C(=O)OC3` [Example 200, 9-(5-isopropoxypyridin-3-yl)-6,7-dimethoxynaphtho[2,3-c]furan-1(3H)-one], in that order: 1.77, 28.2 µM and more than 50 µM.
For `COc1cc2cc3c(c(-c4cnc(N5CCN(C)CC5)nc4)c2cc1OC)C(=O)OC3` [Example 7], in that order: 3.74, 13.4 µM and more than 50 µM.
For `COc1cc2cc3c(c(-c4ccc5c(N6CCNCC6)ccnc5c4)c2cc1OC)C(=O)OC3` [Example 152, 6,7-dimethoxy-9-(4-(piperazin-1-yl)quinolin-7-yl)naphtho[2,3-c]furan-1(3H)-one], in that order: 2.10, 23.8 µM and more than 50 µM.
For `COc1cc2cc3c(c(-c4ccc5cc(C(F)(F)F)cc(O)c5c4)c2cc1OC)C(=O)OC3` [Example 153, 9-(8-hydroxy-6-(trifluoromethyl)naphthalen-2-yl)-6,7-dimethoxynaphtho[2,3-c]furan-1(3H)-one], in the data set on SARS-COV-2, the “SI (Selectivity Index, CC50/IC50)” value is listed as 1.0. For the same molecule, in the data set on SARS-COV-2 (setting [2]), the IC50 was more than 50 µM. In the data set “in vitro”, this molecule displayed a CC50 of more than 50 µM.
Turning to `CCN(C)c1ncc(-c2c3c(cc4cc(OC)c(OC)cc24)COC3=O)cn1` [Example 106, 9-(2-(ethyl(methyl)amino)pyrimidin-5-yl)-6,7-dimethoxynaphtho[2,3-c]furan-1(3H)-one hydrochloride], the “SI (Selectivity Index, CC50/IC50)” value in the data set on SARS-COV-2 stood at 297.58. Besides, the IC50 with SARS-COV-2 (setting [1]) is 0.17 µM. This molecule had a CC50 in the data set “in vitro” of more than 50 µM.
As to `COc1cc2cc3c(c(-c4cnc(N(C)c5cccc(C(F)(F)F)c5)nc4)c2cc1OC)C(=O)OC3` [Example 216, 6,7-dimethoxy-9-(2-(methyl(3-(trifluoromethyl)phenyl)amino)pyrimidin-5-yl)naphtho[2,3-c]furan-1(3H)-one], in the data set with SARS-COV-2, the “SI (Selectivity Index, CC50/IC50)” value worked out at 52.13. Also, the IC50 in the data set on SARS-COV-2 (setting [2]) was found to be 0.96 µM. The molecule further yielded a CC50 in “in vitro” of more than 50 µM.
For `COc1cc2cc3c(c(-c4ccc(N(C)C(C)C)nc4)c2cc1OC)C(=O)OC3` [Example 188, 9-(6-(isopropyl(methyl)amino)pyridin-3-yl)-6,7-dimethoxynaphtho[2,3-c]furan-1(3H)-one], in that order: 1418.97, 0.04 µM and more than 50 µM.
The like results for `CNc1cccc(-c2c3c(cc4cc(OC)c(OC)cc24)COC3=O)c1` [Example 257, 6,7-dimethoxy-9-(3-(methylamino)phenyl)naphtho[2,3-c]furan-1(3H)-one] were, in that order, 6.24, 8.01 µM and more than 50 µM.
For `COc1cc2cc3c(c(-c4cnc(N[C@@H](C)c5ccc(F)cc5)nc4)c2cc1OC)C(=O)OC3` [Example 55, (S)-9-(2-((1-(4-fluorophenyl)ethyl)amino)pyrimidin-5-yl)-6,7-dimethoxynaphtho[2,3-c]furan-1(3H)-one], in that order: 4.23, 11.8 µM and more than 50 µM.
`COc1cc2cc3c(c(-c4ccc(N5CCn6c(nnc6C(F)(F)F)C5)nc4)c2cc1OC)C(=O)OC3` [Example 240, 6,7-dimethoxy-9-(6-(3-(trifluoromethyl)-5,6-dihydro-[1,2,4]triazolo[4,3-a]pyrazin-7 (8H)-yl)pyridin-3-yl)naphtho[2,3-c]furan-1(3H)-one]: in the data set on SARS-COV-2, the “SI (Selectivity Index, CC50/IC50)” value is 1.00. In the data set with SARS-COV-2 (setting [2]), the 50% inhibitory concentration (IC50) was more than 50 µM. In addition, in the data set “in vitro”, the CC50 was more than 50 µM.
Regarding `CCN(c1ncc(-c2c3c(cc4cc(OC)c(OC)cc24)COC3=O)cn1)C(C)C.Cl` [Example 75, 9-(2-(ethyl(isopropyl)amino)pyrimidin-5-yl)-6,7-dimethoxynaphtho[2,3-c]furan-1(3H)-one hydrochloride], the “SI (Selectivity Index, CC50/IC50)” value with SARS-COV-2 worked out at 60.56. For the same molecule, the IC50 with SARS-COV-2 (setting [1]) was 0.83 µM. Also, in “in vitro”, the CC50 was more than 50 µM.
As for `COc1cc2cc3c(c(-c4cc5c(cc4OC(=O)OC4CCCCC4)OCO5)c2cc1OC)C(=O)OC3` [Example 99, cyclohexyl (6-(6,7-dimethoxy-3-oxo-1,3-dihydronaphtho[2,3-c]furan-4-yl)benzo[d][1,3]dioxol-5-yl)carbonate], the “SI (Selectivity Index, CC50/IC50)” value with SARS-COV-2 was 8.70. The concentration for half-maximal inhibition (IC50) with SARS-COV-2 (setting [2]) was 5.75 µM. Besides, the CC50 in the data set “in vitro” was more than 50 µM.
For `COc1cc2cc3c(c(-c4ccc(N5CCN(C)CC5)nc4)c2cc1OC)C(=O)OC3` [Example 167, 6,7-dimethoxy-9-(6-(4-methylpiperazin-1-yl)pyridin-3-yl)naphtho[2,3-c]furan-1(3H)-one], in that order: 3.73, 14.8 µM and more than 50 µM.
For `COC[C@H]1CCCN1c1ncc(-c2c3c(cc4cc(OC)c(OC)cc24)COC3=O)cn1` [Example 102, (R)-6,7-dimethoxy-9-(2-(2-(methoxymethyl)pyrrolidin-1-yl)pyrimidin-5-yl)naphtho[2,3-c]furan-1(3H)-one hydrochloride], the “SI (Selectivity Index, CC50/IC50)” value in the data set with SARS-COV-2 is listed as 30.41. For the same molecule, in the data set with SARS-COV-2 (setting [1]), the IC50 turned out to be 1.64 µM. The molecule also gave a CC50 in the data set “in vitro” of more than 50 µM.
